The record followed here is patent US8309735B2, “Heterocyclic compounds for the inhibition of integrins and use thereof” (Shire Orphan Therapies GmbH, priority 2006, dated 2012).

Molecules are shown by their SMILES.

The target of assay [1] is T1, integrin alpha5beta1 extracellular domain Fc-fusion (Homo sapiens, UniProt P05556+P08648).
T1 construct: The integrin alpha5beta1 extracellular domain Fc-fusion was expressed and purified as described; made in house
The experiment in a line: alpha5beta1 - Fibronectin Binding Assay (competitive ELISA). Conditions: inhibition of integrin binding to fibronectin. As for the experimental part: (§1) The optimal concentrations of integrin and ligand were selected from ELISA binding studies with variable concentrations of both to obtain optimal signal noise ratio for further studies. IC50 studies were performed with fixed concentration of ligand and integrin and a serial dilution of inhibitor. The plates were measured with SpectraMax Plus reader (Molecular Devices). The resulting inhibition curves were analyzed using SoftMaxPro 4.0 software, the turning point describes the IC50 value.
(§2) Fibronectin was purchased from Sigma and fibrinogen from Calbiochem. (EMD Biosciences, Darmstadt, Germany). The integrin alpha5beta1 extracellular domain Fc-fusion was expressed and purified as described (Coe, 2001, J. Biol. Chem., 276, 35854). Integrin alphaIIbbeta3 was purchased form Kordia (Kordia Life Science, Leiden, Netherlands)
1.1. alpha5beta1—Fibronectin Binding Assay
Fibronectin was diluted with coating buffer (15 mM Na2CO3, 35 mM NaHCO3, pH 9.6) and coated with 100 μL/well to Nunc-Immuno maxisorp plates (Nalge Nunc Europe Ltd) over night at 4° C. After discarding the coating solution plates were washed 3 times with buffer 1 (25 mM Tris, pH 7.6, 150 mM NaCl, 1 mM MnCl2, 1 mg/ml BSA) and blocked with 100 μL blocking buffer (3% BSA in PBS 0.1% Tween20) for 1 hour at room temperature. After washing the blocked plates (3 times) with buffer 1, integrin (50 μL) and either inhibitor (serial dilution in buffer 1) or buffer 1 (50 μL) were added to the wells and incubated for one hour at RT. Plates were then washed (3 times) with buffer 1 and incubated with 100 μL of anti-human-Fc-HRP antibody conjugate (Sigma-Aldrich, Taufkirchen, Germany) in buffer 1 for 1 hour at RT. After additional washing steps (3 times) with buffer 150 μL of HRP substrate solution TMB (Seramun, Germany) were added to the wells. Color development was stopped after 3-5 minutes with 50 μL 1 M H2SO4. The developed color was measured at 450 nm and analyzed as described above.
(In general: ELISA stands for enzyme-linked immunosorbent assay.)

Assay [2] addresses T2, Integrin alphaIIbbeta3 (Homo sapiens, UniProt P05106+P08514).
T2 construct: purchased Kordia (Kordia Life Science, Leiden, Netherlands)
T2 sequence (P08514 32-887 limits assumed): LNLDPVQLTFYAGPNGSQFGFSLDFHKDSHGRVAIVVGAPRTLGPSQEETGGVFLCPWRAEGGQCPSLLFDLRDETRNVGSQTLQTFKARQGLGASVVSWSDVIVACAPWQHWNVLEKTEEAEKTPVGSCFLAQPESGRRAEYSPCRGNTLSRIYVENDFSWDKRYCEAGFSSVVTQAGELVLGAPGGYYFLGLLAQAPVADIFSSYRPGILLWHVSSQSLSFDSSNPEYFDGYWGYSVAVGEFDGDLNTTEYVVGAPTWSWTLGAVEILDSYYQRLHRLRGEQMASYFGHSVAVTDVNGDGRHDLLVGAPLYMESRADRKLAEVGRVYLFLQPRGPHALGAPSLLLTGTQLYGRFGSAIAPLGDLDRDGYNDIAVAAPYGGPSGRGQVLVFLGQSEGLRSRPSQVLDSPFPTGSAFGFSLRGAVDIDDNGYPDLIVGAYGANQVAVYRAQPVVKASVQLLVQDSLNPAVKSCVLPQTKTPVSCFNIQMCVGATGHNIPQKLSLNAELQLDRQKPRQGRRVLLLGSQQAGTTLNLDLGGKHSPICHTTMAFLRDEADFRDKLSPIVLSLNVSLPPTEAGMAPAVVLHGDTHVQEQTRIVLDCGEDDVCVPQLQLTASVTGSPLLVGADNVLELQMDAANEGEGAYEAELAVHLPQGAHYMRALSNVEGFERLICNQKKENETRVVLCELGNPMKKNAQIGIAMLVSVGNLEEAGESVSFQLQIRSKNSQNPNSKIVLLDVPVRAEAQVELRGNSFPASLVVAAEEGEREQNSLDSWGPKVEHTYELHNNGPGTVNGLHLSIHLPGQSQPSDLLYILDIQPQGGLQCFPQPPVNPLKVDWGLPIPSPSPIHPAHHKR
T2 sequence (P05106 27-788): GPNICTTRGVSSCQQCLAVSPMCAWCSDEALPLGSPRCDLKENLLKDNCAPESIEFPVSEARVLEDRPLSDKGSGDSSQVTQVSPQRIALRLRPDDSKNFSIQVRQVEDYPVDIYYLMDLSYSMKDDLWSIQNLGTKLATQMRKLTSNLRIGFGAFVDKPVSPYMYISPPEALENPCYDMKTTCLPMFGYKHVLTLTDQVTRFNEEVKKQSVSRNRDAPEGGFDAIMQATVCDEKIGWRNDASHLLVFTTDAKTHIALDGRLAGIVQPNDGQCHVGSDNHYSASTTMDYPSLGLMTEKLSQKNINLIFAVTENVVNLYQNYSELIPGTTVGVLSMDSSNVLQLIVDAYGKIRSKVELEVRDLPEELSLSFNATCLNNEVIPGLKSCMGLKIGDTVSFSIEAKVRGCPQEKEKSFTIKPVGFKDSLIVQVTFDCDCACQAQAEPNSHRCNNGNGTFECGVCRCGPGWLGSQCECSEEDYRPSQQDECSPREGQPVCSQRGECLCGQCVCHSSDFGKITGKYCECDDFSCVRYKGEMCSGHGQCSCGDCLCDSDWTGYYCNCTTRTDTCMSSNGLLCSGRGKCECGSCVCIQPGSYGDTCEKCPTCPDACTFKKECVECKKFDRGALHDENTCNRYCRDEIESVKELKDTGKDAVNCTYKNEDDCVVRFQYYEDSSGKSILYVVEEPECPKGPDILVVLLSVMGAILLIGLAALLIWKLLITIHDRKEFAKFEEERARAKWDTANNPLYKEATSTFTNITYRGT
In words: alphaIIbbeta3 - Fibrinogen Binding Assay (competitive ELISA). Conditions: inhibition of integrin binding to fibrinogen, read-out: IC50 alphabIIbbeta3. As for the experimental part:
as §1, §2
1.2. alphaIIbbeta3—Fibrinogen Binding Assay
Fibrinogen was diluted with coating buffer (15 mM Na2CO3, 35 mM NaHCO3, pH 9.6) and coated with 100 μL/well to Nunc-Immuno maxisorp plates over night at 4° C. After discarding the coating solution plates were washed 3 times with buffer 1 (25 mM Tris, pH 7.6, 150 mM NaCl, 1 mM MnCl2, 1 mg/ml BSA) and blocked with 100 μL blocking buffer (3% BSA in PBS 0.1% Tween20) for 1 hour at room temperature. After washing the blocked plates (3 times) with buffer 1, integrin alphaIIbbeta3 (50 μL) and either inhibitor (serial dilution in buffer 3, 25 mM Tris, pH 7.6, 150 mM NaCl, 1 mM MnCl2, 1 mg/ml BSA 1 mM MgCl2, 1 mM CaCl2,) or buffer 3 (50 μL) were added to the wells and incubated for one hour at RT. Plates were then washed (3 times) with buffer 3 and incubated with 100 μL of anti-alphaIIbbeta3 antibody (anti CD41b, Pharmingen) in buffer 3 for 1 hour at RT. Plates were washed (3 times) with buffer 3 and incubated for 1 hour with 100 μL secondary antibody (anti-mouse-HRP conjugate, Sigma) in buffer 3. After additional washing steps (3 times) with buffer 3 50 μL of HRP substrate solution TMB (Seramun) were added to the wells. Color development was stopped after 3-5 minutes with 50 μL 1 M H2SO4. The developed color was measured at 450 nm and analyzed as described above.

On to `Cc1ccnc(NCc2ccn(-c3ccc(C[C@H](NC(=O)C4(C)CCCCC4)C(=O)O)cc3)c2)c1` [Compound 22, 2-[(1-Methyl-cyclohexanecarbonyl)-amino]-3-(4-{3-[(4-methyl-pyridin-2-ylamino)-methyl]-pyrrol-1-yl}-phenyl)-propionic acid], for which the IC50 (as a rule, the midpoint of a concentration-inhibition curve) is < 100 nM in assay [1] and > 1 nM in assay [2].
On the same counts, the results for `Cc1ccnc(NCc2cn(-c3ccc(C[C@H](NC(=O)c4c(C)cc(C)cc4C)C(=O)O)cc3)nn2)c1` [Compound 15, 3-(4-{4-[(4-Methyl-pyridin-2-ylamino)-methyl]-[1,2,3]triazol-1-yl}-phenyl)-2-(2,4,6-trimethyl-benzoylamino)-propionic acid] are < 100 nM and > 1 nM.
As for `CCc1cccc(C)c1C(=O)N[C@@H](Cc1ccc(-c2cc(CNc3cc(C)ccn3)co2)cc1)C(=O)O` [Compound 36, 2-(2-Ethyl-6-methyl-benzoylamino)-3-(4-{4-[(4-methyl-pyridin-2-ylamino)-methyl]-furan-2-yl}-phenyl)-propionic acid], the figures for the IC50 in assay [1] and in assay [2] were < 100 nM and > 1 nM, respectively.
For the molecule `Cc1ccnc(NCc2csc(-c3ccc(C[C@H](NC(=O)c4c(C)cc(C)cc4C)C(=O)O)cc3)c2)c1` [Compound 19, 3-(4-{4-[(4-Methyl-pyridin-2-ylamino)-methyl]-thiophen-2-yl}-phenyl)-2-(2,4,6-trimethyl-benzoylamino)-propionic acid], the values for the IC50 in assay [1] and in assay [2] were < 100 nM and > 1 nM, respectively.
With `Cc1ccnc(NCc2coc(-c3ccc(C[C@H](NC(=O)c4c(C)cccc4C)C(=O)O)cc3)c2)c1` [Compound 35, 2-(2,6-Dimethyl-benzoylamino)-3-(4-{4-[(4-methyl-pyridin-2-ylamino)-methyl]-furan-2-yl}-phenyl)-propionic acid], the IC50 is < 100 nM in assay [1] and > 1 nM in assay [2].
Consider `Cc1ccnc(NCc2coc(-c3ccc(C[C@H](NC(=O)c4c(C)cc(C)cc4C)C(=O)O)cc3)c2)c1` [Compound 12, 3-(4-{4-[(4-Methyl-pyridin-2-ylamino)-methyl]-furan-2-yl}-phenyl)-2-(2,4,6-trimethyl-benzoylamino)-propionic acid], for which the figures for the IC50 in assay [1] and in assay [2] were < 100 nM and > 1 nM, respectively.
Regarding `Cc1ccnc(NCc2cc(-c3ccc(C[C@H](NC(=O)c4c(C)cc(C)cc4C)C(=O)O)cc3)on2)c1` [Compound 6, 3-(4-{3-[(4-Methyl-pyridin-2-ylamino)-methyl]-isoxazol-5-yl}-phenyl)-2-(2,4,6-trimethyl-benzoylamino)-propionic acid], the results for the IC50 in assay [1] and in assay [2] were < 100 nM and > 1 nM, respectively.
In the same order, the values of `Cc1cc(C)c(C(=O)N[C@@H](Cc2ccc(-n3cc(CNc4nc5ccccc5[nH]4)nn3)cc2)C(=O)O)c(C)c1` [Compound 29, 3-(4-{4-[(1H-Benzoimidazol-2-ylamino)-methyl]-[1,2,3]triazol-1-yl}-phenyl)-2-(2,4,6-trimethyl-benzoylamino)-propionic] are < 100 nM and > 1 nM.
For `Cc1ccnc(NCc2coc(-c3ccc(C[C@H](NC(=O)c4c(C)cc(F)cc4C)C(=O)O)cc3)c2)c1` [Compound 37, 2-(4-Fluoro-2,6-dimethyl-benzoylamino)-3-(4-{4-[(4-methyl-pyridin-2-ylamino)-methyl]-furan-2-yl}-phenyl)-propionic acid], the IC50 in assay [1] is < 100 nM; in assay [2], > 1 nM.
With `Cc1ccnc(NCc2cnc(-c3ccc(C[C@H](NC(=O)c4c(C)cc(C)cc4C)C(=O)O)cc3)s2)c1` [Compound 9, 3-(4-{5-[(4-Methyl-pyridin-2-ylamino)-methyl]-thiazol-2-yl}-phenyl)-2-(2,4,6-trimethyl-benzoylamino)-propionic acid], the IC50 in assay [1] was < 100 nM; in assay [2], > 1 nM.
